In US20240138411A1, “METHOD OF […] OF SUGARCANE” (CORTEVA AGRISCIENCE LLC, priority 2021, published 2024):

Tested on: sugarcane
Assay: Sugarcane flowering inhibition field trials, floral induction rated on UFSCar scale
Format: in vivo
Method: In order to explore the activity of florpyrauxifen as flowering inhibitor in sugarcane, field studies were carried out. Florpyrauxifen-benzyl was tested at rates from 2 to 20 grams active ingredient per hectare (g ai/ha) and compared to Ethrel® 720 (Bayer), the standard treatment. The flowering inhibition effect was assessed by checking the floral induction in sugarcane through the percentage scale recommended by UFSCar (Federal University of Sao Carlos, Sao Paulo, Brazil).
Four trials were carried out in sugarcane where florpyrauxifen-benzyl (Rinskor®), applied at a rate of 2 to 20 g ai/ha, was compared to ethephon (Ethrel® 720) applied at a rate of 475 g ai/ha. Control plots of untreated sugarcane were also evaluated. Rinskor® and Ethrel® 720 were diluted in water and a single application for each study (backpack sprayer) was performed delivering 50 L of spray solution per ha at the reproductive stage of sugarcane and at a maximum 150 days before harvest. The activity of florpyrauxifen-benzyl as a flowering inhibitor was measured via assessments (Scale of flowering inhibition—see chart 1) performed at 0, 14, 30, 45, 60, 75, 90, 120, 150 days after application, or up to harvest time. The assessments were measured in sugarcane stems, rating the flowering induction according to the UFSCar scale shown below. Significance of treatment effect was evaluated with F-approximate test (α=0.1) and least square means from different treatments were compared with Tukey's test.

COc1c(Cl)ccc(-c2nc(C(=O)OCc3ccccc3)c(Cl)c(N)c2F)c1F [Rinskor, florpyrauxifen-benzyl]
12.5%: Frequency 1/1 (0%) (Table 1, 75 DAA, 2 g ai/ha) | Frequency 1/1 (0%) (Table 1, 90 DAA, 2 g ai/ha)
10.5%: % Referring to Scale (Table 1, 75 DAA, 20 g ai/ha)
14.3%: % Referring to Scale (Table 1, 90 DAA, 10 g ai/ha)
7.5%: Frequency 1/1 (0%) (Table 1, 75 DAA, 5 g ai/ha) | Frequency 1/1 (0%) (Table 1, 90 DAA, 10 g ai/ha) | Frequency 1/1 (0%) (Table 1, 90 DAA, 15 g ai/ha) | Frequency 1/1 (0%) (Table 1, 120 DAA, 2 g ai/ha) | Frequency 1/1 (0%) (Table 1, 120 DAA, 10 g ai/ha) | Frequency 1/1 (0%) (Table 1, 120 DAA, 15 g ai/ha)
12.8%: % Referring to Scale (Table 1, 120 DAA, 5 g ai/ha)
2.5%: Frequency 3/1 (30%) (Table 1, 75 DAA, 2 g ai/ha) | Frequency 3/1 (30%) (Table 1, 90 DAA, 10 g ai/ha)
90.0%: Frequency 2/1 (15%) (Table 1, 90 DAA, 10 g ai/ha)
14.6%: % Referring to Scale (Table 1, 75 DAA, 5 g ai/ha)
32.5%: Frequency 1/1 (0%) (Table 1, 75 DAA, 15 g ai/ha)
92.5%: Frequency 2/1 (15%) (Table 1, 90 DAA, 15 g ai/ha) | Frequency 2/1 (15%) (Table 1, 120 DAA, 2 g ai/ha) | Frequency 2/1 (15%) (Table 1, 120 DAA, 10 g ai/ha) | Frequency 2/1 (15%) (Table 1, 120 DAA, 15 g ai/ha)
5.0%: Frequency 3/1 (30%) (Table 1, 75 DAA, 5 g ai/ha) | Frequency 3/1 (30%) (Table 1, 90 DAA, 20 g ai/ha)
87.5%: Frequency 2/1 (15%) (Table 1, 75 DAA, 5 g ai/ha) | Frequency 2/1 (15%) (Table 1, 90 DAA, 2 g ai/ha)
13.9%: % Referring to Scale (Table 1, 90 DAA, 15 g ai/ha) | % Referring to Scale (Table 1, 120 DAA, 2 g ai/ha) | % Referring to Scale (Table 1, 120 DAA, 10 g ai/ha) | % Referring to Scale (Table 1, 120 DAA, 15 g ai/ha)
67.5%: Frequency 2/1 (15%) (Table 1, 75 DAA, 15 g ai/ha)
13.1%: % Referring to Scale (Table 1, 90 DAA, 2 g ai/ha)
25.0%: Frequency 1/1 (0%) (Table 1, 75 DAA, 10 g ai/ha) | Frequency 1/1 (0%) (Table 1, 90 DAA, 5 g ai/ha)
80.0%: Frequency 2/1 (15%) (Table 1, 90 DAA, 20 g ai/ha)
11.3%: % Referring to Scale (Table 1, 75 DAA, 10 g ai/ha) | % Referring to Scale (Table 1, 90 DAA, 5 g ai/ha)
70.0%: Frequency 2/1 (15%) (Table 1, 75 DAA, 20 g ai/ha)
75.0%: Frequency 2/1 (15%) (Table 1, 75 DAA, 10 g ai/ha) | Frequency 2/1 (15%) (Table 1, 90 DAA, 5 g ai/ha)
10.1%: % Referring to Scale (Table 1, 75 DAA, 15 g ai/ha)
85.0%: Frequency 2/1 (15%) (Table 1, 75 DAA, 2 g ai/ha) | Frequency 2/1 (15%) (Table 1, 120 DAA, 5 g ai/ha)
15.0%: Frequency 1/1 (0%) (Table 1, 90 DAA, 20 g ai/ha) | Frequency 1/1 (0%) (Table 1, 120 DAA, 5 g ai/ha)
30.0%: Frequency 1/1 (0%) (Table 1, 75 DAA, 20 g ai/ha)
0.0%: Frequency 4/1 (50%) (Table 1, 75 DAA, 2 g ai/ha) | Frequency 4/2 (80%) (Table 1, 75 DAA, 2 g ai/ha) | Frequency 4/3 (90%) (Table 1, 75 DAA, 2 g ai/ha) | Frequency 4/4 (100%) (Table 1, 75 DAA, 2 g ai/ha) | Frequency 4/1 (50%) (Table 1, 75 DAA, 5 g ai/ha) | Frequency 4/2 (80%) (Table 1, 75 DAA, 5 g ai/ha) | Frequency 4/3 (90%) (Table 1, 75 DAA, 5 g ai/ha) | Frequency 4/4 (100%) (Table 1, 75 DAA, 5 g ai/ha) | Frequency 3/1 (30%) (Table 1, 75 DAA, 10 g ai/ha) | Frequency 4/1 (50%) (Table 1, 75 DAA, 10 g ai/ha) | Frequency 4/2 (80%) (Table 1, 75 DAA, 10 g ai/ha) | Frequency 4/3 (90%) (Table 1, 75 DAA, 10 g ai/ha) | Frequency 4/4 (100%) (Table 1, 75 DAA, 10 g ai/ha) | Frequency 3/1 (30%) (Table 1, 75 DAA, 15 g ai/ha) | Frequency 4/1 (50%) (Table 1, 75 DAA, 15 g ai/ha) | Frequency 4/2 (80%) (Table 1, 75 DAA, 15 g ai/ha) | Frequency 4/3 (90%) (Table 1, 75 DAA, 15 g ai/ha) | Frequency 4/4 (100%) (Table 1, 75 DAA, 15 g ai/ha) | Frequency 3/1 (30%) (Table 1, 75 DAA, 20 g ai/ha) | Frequency 4/1 (50%) (Table 1, 75 DAA, 20 g ai/ha) | Frequency 4/2 (80%) (Table 1, 75 DAA, 20 g ai/ha) | Frequency 4/3 (90%) (Table 1, 75 DAA, 20 g ai/ha) | Frequency 4/4 (100%) (Table 1, 75 DAA, 20 g ai/ha) | Frequency 3/1 (30%) (Table 1, 90 DAA, 2 g ai/ha) | Frequency 4/1 (50%) (Table 1, 90 DAA, 2 g ai/ha) | Frequency 4/2 (80%) (Table 1, 90 DAA, 2 g ai/ha) | Frequency 4/3 (90%) (Table 1, 90 DAA, 2 g ai/ha) | Frequency 4/4 (100%) (Table 1, 90 DAA, 2 g ai/ha) | Frequency 3/1 (30%) (Table 1, 90 DAA, 5 g ai/ha) | Frequency 4/1 (50%) (Table 1, 90 DAA, 5 g ai/ha) | Frequency 4/2 (80%) (Table 1, 90 DAA, 5 g ai/ha) | Frequency 4/3 (90%) (Table 1, 90 DAA, 5 g ai/ha) | Frequency 4/4 (100%) (Table 1, 90 DAA, 5 g ai/ha) | Frequency 4/1 (50%) (Table 1, 90 DAA, 10 g ai/ha) | Frequency 4/2 (80%) (Table 1, 90 DAA, 10 g ai/ha) | Frequency 4/3 (90%) (Table 1, 90 DAA, 10 g ai/ha) | Frequency 4/4 (100%) (Table 1, 90 DAA, 10 g ai/ha) | Frequency 3/1 (30%) (Table 1, 90 DAA, 15 g ai/ha) | Frequency 4/1 (50%) (Table 1, 90 DAA, 15 g ai/ha) | Frequency 4/2 (80%) (Table 1, 90 DAA, 15 g ai/ha) | Frequency 4/3 (90%) (Table 1, 90 DAA, 15 g ai/ha) | Frequency 4/4 (100%) (Table 1, 90 DAA, 15 g ai/ha) | Frequency 4/1 (50%) (Table 1, 90 DAA, 20 g ai/ha) | Frequency 4/2 (80%) (Table 1, 90 DAA, 20 g ai/ha) | Frequency 4/3 (90%) (Table 1, 90 DAA, 20 g ai/ha) | Frequency 4/4 (100%) (Table 1, 90 DAA, 20 g ai/ha) | Frequency 3/1 (30%) (Table 1, 120 DAA, 2 g ai/ha) | Frequency 4/1 (50%) (Table 1, 120 DAA, 2 g ai/ha) | Frequency 4/2 (80%) (Table 1, 120 DAA, 2 g ai/ha) | Frequency 4/3 (90%) (Table 1, 120 DAA, 2 g ai/ha) | Frequency 4/4 (100%) (Table 1, 120 DAA, 2 g ai/ha) | Frequency 3/1 (30%) (Table 1, 120 DAA, 5 g ai/ha) | Frequency 4/1 (50%) (Table 1, 120 DAA, 5 g ai/ha) | Frequency 4/2 (80%) (Table 1, 120 DAA, 5 g ai/ha) | Frequency 4/3 (90%) (Table 1, 120 DAA, 5 g ai/ha) | Frequency 4/4 (100%) (Table 1, 120 DAA, 5 g ai/ha) | Frequency 3/1 (30%) (Table 1, 120 DAA, 10 g ai/ha) | Frequency 4/1 (50%) (Table 1, 120 DAA, 10 g ai/ha) | Frequency 4/2 (80%) (Table 1, 120 DAA, 10 g ai/ha) | Frequency 4/3 (90%) (Table 1, 120 DAA, 10 g ai/ha) | Frequency 4/4 (100%) (Table 1, 120 DAA, 10 g ai/ha) | Frequency 3/1 (30%) (Table 1, 120 DAA, 15 g ai/ha) | Frequency 4/1 (50%) (Table 1, 120 DAA, 15 g ai/ha) | Frequency 4/2 (80%) (Table 1, 120 DAA, 15 g ai/ha) | Frequency 4/3 (90%) (Table 1, 120 DAA, 15 g ai/ha) | Frequency 4/4 (100%) (Table 1, 120 DAA, 15 g ai/ha)
13.5%: % Referring to Scale (Table 1, 75 DAA, 2 g ai/ha) | % Referring to Scale (Table 1, 90 DAA, 20 g ai/ha)
